PMC5238392, “Origin of anti-tumor activity of the cysteine-containing GO peptides and further optimization of their cytotoxic properties” (Scientific Reports, 2017)
Where two headings read alike, the source gives them in different places. Square brackets hold non-standard residues; d marks the D form. Peptide text beside a SMILES is read from it.

Key:
[1] = tested on: human breast carcinoma cell line ZR-75-1; assay: MTS cell viability assay, ZR-75-1; settings: single dose
Experimental: (§1) As a next step, we used MTS assay[27] to examine the effect of GO peptides on the viability of the four described cell cultures as a function of different treatment schemes. […] This treatment regimen is labeled 4 × 5 underneath the graph. Alternatively, we introduced 5 μM of peptide daily while exchanging the medium (denoted 4/5). Unlike the previous protocol, it avoids potential build-up of the peptide in the medium.
(§2) The treatment protocols are: 4 × 5 – four daily doses of 5 μM delivered without exchanging the growth medium; 4/5 – four daily doses of 5 μM delivered with exchanged growth medium; 1 × 5, 1 × 10, 1 × 15, and 1 × 20 – a single dose of 5, 10, 15, or 20 μM, respectively. MTS reagent was added to the wells 96 h after the first (and sometimes the only) application of the peptide and the optical density at 492 nm was measured to determine the fraction of the surviving cells.
(§3) The data are according to the MTS assay, where the optical density was measured 96 h after the application of the peptide.
(§4) Cell survival was measured using CellTiter 96 AQueous One Solution Cell Proliferation Assay (MTS test, Promega, USA). Cells have been seeded in a 96-well flat-bottom plate in 100 μl of culture medium (10^3 cells/well for A549, HT-1080, dermal fibroblasts and eMSC or 5 × 10^3 cells/well for ZR-75-1) and allowed to attach for 24 h. The starting amount of cells was chosen to account for their growth rate and degree of spreading such as to avoid excessive dilution in the beginning of the experiment or control cell overgrowth toward the end. After 24 h, 10 μl of peptide stock solution or PBS (control) were added to the wells. After 96 h, 20 μl of the MTS-reagent were added to each well and 1–2 h later optical density was measured at the wavelength 492 nm using the 96-well plate reader (Titertek Multiskan, Labsystems, Finland). All experiments were conducted in duplicate or triplicate.

[2] = biological target: T1, reduced and denatured hen egg white lysozyme (Gallus gallus, UniProt P00698); assay: Lysozyme oxidative refolding assay (disulfide oxidoreductase activity); format: biochemical; settings: 1 mM peptide, pH 8.5, room temperature
T1 construct: Hen egg white lysozyme (Amresco, USA) was reduced/denatured and lyophilized; purchased Amresco, USA; host or cells: hen egg white
Text: We have also conducted in vitro experiments to directly probe disulfide oxidoreductase properties of GO-202 peptide. For this purpose we have used the well-established lysozyme refolding assay. In brief, GO-202 is applied to the sample of reduced and denatured hen lysozyme. The protein then undergoes oxidative refolding, assisted by GO-202 which plays the role of disulfide oxidase (isomerase). After a certain interval of time (Tox) this process is quenched by adding an aliquot of acid and the sample is loaded on the reverse phase column.
Figure 10 Oxidative refolding of hen egg lysozyme as monitored by reverse-phase HPLC. […] Top panel (red traces) illustrate protein renaturation in the presence of GO-202; bottom panel (blue traces) represent control measurements with no peptide. The reaction time Tox ranging from 0 to 75 mins is listed on the left side of the individual chromatograms.
Hen egg white lysozyme (Amresco, USA) was reduced/denatured and lyophilized according to the protocol by van den Berg et al.[54]. It was then dissolved in buffer B1 (8 M urea, 100 mM Tris-HCl, 100 mM NaCl, 1 mM EDTA, pH 8.5) to obtain solution with 100 μM lysozyme concentration. Refolding was initiated by rapid dilution of 50 μL of this solution in 150 μL of buffer B2 (100 mM Tris-HCl, 100 mM NaCl, 1 mM EDTA, pH 8.5) containing the appropriate amount of redox agent (none for control experiment, 1.0 mM/0.2 mM GSH/GSSG for calibration experiment, 1 mM of GO-202 for disulfide oxidoreductase activity assay). The reactions were carried out at room temperature and quenched by addition of 10 μL of 2.5 M HCl to produce a pH of ca. 2. Buffers B1 and B2 were degassed prior to use by applying vacuum while stirred on magnetic stirrer for 30 min.
Reverse-phase chromatography data were obtained using Shimadzu Nexera HPLC with detection at 280 nm wavelength. The column used was Phenomenex Luna C-18 (5 μm particle size, 100 Å pore size, 150 mm length, 4.6 mm diameter); sample injection volume was 20 μL. HPLC solvent A was H2O/0.2% (v/v) trifluroacetic acid (TFA), solvent B was 90% CH3CN/10% H2O/0.2% TFA. Lysozyme was eluted using 30 min linear gradient from 35% to 45% of solvent B with a flow rate of 1 mL/min. Chromatograms from calibration GSH/GSSG experiments were in agreement with the previously reported data[54][63].

[3] = tested on: human fibrosarcoma cell line HT-1080; format: cell-based; settings: for Viability of HT-1080 cells (MTS): single 20 μM dose, different incubation times, Fig. 9
[4] = tested on: human endometrial mesenchymal stem cells (eMSC); assay: MTS cell viability assay, eMSC; settings: normal cells: eMSC; single dose, 96 h; Fig. 7E,F
Experimental: as §3
(§5) As a next step, we set out to test the cytotoxic effect of these peptides on the normal cells. In addition to the primary culture of dermal fibroblasts, which has been discussed above, we have also used human endometrial mesenchymal stem cells (eMSC).
as §4

[5] = tested on: primary culture of human dermal fibroblasts (DF); assay: MTS cell viability assay, dermal fibroblasts; settings: for Effect on proliferative activity at low dose (MTS): 5 μM single dose
Experimental: as §1, §2
(§6) As a next step, we set out to test the cytotoxic effect of these peptides on the normal cells.
as §4

[6] = cited from earlier work
Text: Some interesting examples of peptides with presumed DO mechanism can also be found in the literature. […] The efficiency of this peptide was critically dependent on the two contiguous cysteines: mutating these residues to alanines or serines completely abrogated its activity, whereas other alterations such as sequence reversal preserved the activity.

lysozyme = settings: oxidative refolding of lysozyme in vitro; cited from earlier work
Text: One instructive example of the redox-active peptides in Table 1 is the peptide labeled DIL (disulfide-isomerase-like). Originally, Woycechowsky and Raines have investigated the CGC peptide, where they measured the redox potential of −167 mV[40]. […] Recently, a longer peptide, RKCGCFF, has been introduced by Liu et al.[41]. The two basic residues, RK, have been added to the sequence with the intent to lower the thiol pKa values, while the two hydrophobic residues, FF, have been included to improve binding of the pept ...

[7] = tested on: human breast carcinoma and prostate cancer cells; settings: cited from earlier work
[8] = tested on: primary culture of human dermal fibroblasts (DF)
Experimental: as §1, §2, §6, §4

[9] = tested on: human breast carcinoma cell line ZR-75-1
Experimental: as §1, §2, §3, §4

[10] = tested on: human endometrial mesenchymal stem cells (eMSC)
Experimental: as §3, §5, §4

[11] = tested on: human fibrosarcoma cell line HT-1080; format: cell-based
Text: To evaluate the activity of DIL, CopYL and seven other peptides described in Table 1, we have conducted the dose-response measurements on the sensitive (HT-1080) and insensitive (ZR-75-1) cancer cell lines. The results are shown in Fig. 7A–D. For fibrosarcoma cells HT-1080, the best results are obtained using the peptide DOL with presumed disulfide oxidase properties. […] This is a much better performance than shown by GO-202 where the survival rate under identical conditions is 16%.
All experiments were conducted in duplicate or triplicate.

T1 sequence (P00698 19-147): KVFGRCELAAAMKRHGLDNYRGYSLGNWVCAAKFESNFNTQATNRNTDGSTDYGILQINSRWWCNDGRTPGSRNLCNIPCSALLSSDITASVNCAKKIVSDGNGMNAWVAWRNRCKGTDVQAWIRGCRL

Which results are given for `N=C(N)NCCC[C@@H](N)C(=O)N[C@H](CCCNC(=N)N)C(=O)N[C@H](CCCNC(=N)N)C(=O)N[C@H](CCCNC(=N)N)C(=O)N[C@H](CCCNC(=N)N)C(=O)N[C@H](CCCNC(=N)N)C(=O)N[C@H](CCCNC(=N)N)C(=O)N[C@H](CCCNC(=N)N)C(=O)N[C@H](CCCNC(=N)N)C(=O)N[C@@H](CS)C(=O)N[C@@H](CCC(N)=O)C(=O)N[C@@H](CS)C(=O)N[C@@H](CCCNC(=N)N)C(=O)N[C@@H](CCCNC(=N)N)C(=O)N[C@@H](CCCCN)C(=O)N[C@@H](CC(N)=O)C(=O)O` [GO-202] (H-[dR][dR][dR][dR][dR][dR][dR][dR][dR]CQCRRKN-OH; N-terminus and C-terminus assumed)?
Cytotoxic activity compared with GO-202 (dose-response, MTS) ([1]; OD measured 96 h after application, Fig. 7C,D): modestly active; Disulfide oxidoreductase activity in oxidative refolding of lysozyme ([2]; 25 μM-scale lysozyme diluted from 100 μM stock, RP-HPLC 280 nm): moderately effective disulfide oxidoreductase; Reaction time Tox after which a significant fraction of lysozyme is fully oxidized natively folded ([2]; RP-HPLC): 15 min; Reaction time Tox after which native form of lysozyme is dominant ([2]; RP-HPLC): 75 min; Reaction time Tox after which no distinct peak from reduced lysozyme is observed ([2]; RP-HPLC, control without peptide: partially oxidized after ca. 75 mins): ≤ 1 min; Cell viability (MTS) ([3]; HT-1080, 4 × 5: four daily doses of 5 μM without exchanging growth medium, OD 492 nm 96 h after first application, duplicate or triplicate): significant impact; Viability of HT-1080 cells (MTS) [3]: cell death occurs soon after the GO-202 treatment; Cytotoxic activity compared with GO-202 (dose-response, MTS) [4]: highly sensitive; Effect on proliferative activity at low dose (MTS) ([5]; dermal fibroblasts, 96 h): small increases in proliferative activity; Cell viability (MTS) ([5]; dermal fibroblasts, 4 × 5: four daily doses of 5 μM without exchanging growth medium, OD 492 nm 96 h after first application): significant impact; Cytotoxic activity compared with GO-202 (dose-response, MTS) ([5]; normal cells: dermal fibroblasts, single dose, 96 h, Fig. 7E,F): highly sensitive

Which antimicrobial activity [6] does the source give for GKAKCCK here?
The antimicrobial activity was “pronounced antimicrobial activity”.

Which “Efficiency as a mimic of disulfide isomerase” value (lysozyme) does the source give for “RKCGCFF [peptide of Liu et al., mimic of disulfide isomerase]” here?
Its value is “increased efficiency”.

For [R]9AQARRKNYGQLDIFP [CP-1], which Cytotoxic properties [7] is on record?
The Cytotoxic properties was “no appreciable cytotoxic properties”.

Which “Cytotoxic activity compared with GO-202 (dose-response, MTS)” value [8] does the source give for [R]9CCCRRKN here?
The value was “outperform GO-202”.

What about the “Cytotoxic activity compared with GO-202 (dose-response, MTS)” value [9] of the same compound?
Its value is “significantly outperform GO-202”.

And the “Cytotoxic activity compared with GO-202 (dose-response, MTS)” value [10]?
The value was “strongest effect”.

What about the “Cytotoxic activity compared with GO-202 (dose-response, MTS)” value [11] of the same compound?
The value was “outperform the standard GO-202, although only by a small margin”.

What about the “Effect on proliferative activity at low dose (MTS)” value ([5]; dermal fibroblasts, 96 h) of the same compound?
Its value is “small increases in proliferative activity”.

For [R]9CQSRRKN, which “Viability of HT-1080 cells (MTS)” value [3] is on record?
Its value is “inactive”.

With [R]9FFCPHCYQ [DOL] as the compound, how does the “Effectiveness in killing cancer cells relative to GO-202” value ([1]; 20 μM, MTS 96 h) read?
Its value is “three times more effective”.

And the “Cytotoxic activity compared with GO-202 (dose-response, MTS)” value [8]?
The value was “strongest effect”.

What about the “Cytotoxic activity compared with GO-202 (dose-response, MTS)” value [9] of the same compound?
Its value is “best result”.

And the “Cytotoxic activity compared with GO-202 (dose-response, MTS)” value [10]?
Its value is “outperform GO-202”.

What about the “Cytotoxic activity compared with GO-202 (dose-response, MTS)” value [11] of the same compound?
Its value is “best results”.

And the “survival rate (MTS assay)” value ([11]; HT-1080, 96 h incubation with 20 μM peptide, single dose)?
The value was “essentially fully eliminated”.

With “[R]9GCGPCG [DRL, disulfide-reductase-like peptide derived from thioredoxin]” as the compound, how does the “Cytotoxic activity compared with GO-202 (dose-response, MTS)” value [9] read?
Its value is “inactive”.

What about the “Cytotoxic activity compared with GO-202 (dose-response, MTS)” value [11] of the same compound?
The value was “inactive”.

For [R]9KCGCFF [DIL], which “Cytotoxic activity compared with GO-202 (dose-response, MTS)” value [8] is on record?
The value was “less cytotoxic than GO-202”.

And the “Cytotoxic activity compared with GO-202 (dose-response, MTS)” value [9]?
The value was “significantly outperform GO-202”.

What about the “Cytotoxic activity compared with GO-202 (dose-response, MTS)” value [10] of the same compound?
Its value is “less cytotoxic than GO-202”.

What about the “Cytotoxic activity compared with GO-202 (dose-response, MTS)” value [11] of the same compound?
The value was “second best result”.

And the “Effect on proliferative activity at low dose (MTS)” value ([5]; dermal fibroblasts, 96 h)?
Its value is “small increases in proliferative activity”.

Which “Viability of HT-1080 cells (MTS)” value [3] does the source give for [R]9SQCRRKN here?
The value was “inactive”.

Which results are given for “[R]9SQSRRKN [control: GO-202 with S-for-C substitution]”?
Viability of HT-1080 cells (MTS) [3]: ineffective; Cytotoxic activity compared with GO-202 (dose-response, MTS) [11]: inefficient compared to GO-202
